In ChEMBL document CHEMBL5357031, “Design and Synthesis of Cytotoxic Water-Soluble Rocaglaol Derivatives against HEL Cells by Inhibiting Fli-1” (J Nat Prod, 2024):

Assays:
[1] = test system: HEL; assay: Cytotoxicity against HEL cells assessed as cell growth inhibition incubated for 72 hrs by MTT assay; format: functional, cell-based, Homo sapiens; conditions: hel
[2] = test system: SW480; assay: Cytotoxicity against human SW480 cells assessed as cell growth inhibition incubated for 72 hrs by MTT assay; format: functional, cell-based; conditions: sw480
[3] = Solubility of compound in PBS at pH 7.4 at 1.7 mg measured for 24 hrs by HPLC-UV analysis; format: physicochemical
[4] = test system: HEL; assay: Induction of apoptosis in HEL cells assessed as viable cells at 0.1 uM incubated for 24 hrs by Annexin V/PI staining based flow cytometry (reference value: 94.94 %); format: functional; conditions: Homo sapiens, read-out: Activity
[5] = test system: HEL; assay: Induction of apoptosis in HEL cells assessed as early apoptotic cells at 0.1 uM incubated for 24 hrs by Annexin V/PI staining based flow cytometry (reference value: 1.47 %); format: functional, Homo sapiens
[6] = test system: HEL; assay: Induction of apoptosis in HEL cells assessed as late apoptotic cells at 0.1 uM incubated for 24 hrs by Annexin V/PI staining based flow cytometry (reference value: 1.98 %); format: functional, Homo sapiens
[7] = test system: HEL; assay: Induction of apoptosis in HEL cells assessed as necrotic cells at 0.1 uM incubated for 24 hrs by Annexin V/PI staining based flow cytometry (reference value: 1.61 %); format: functional, Homo sapiens
[8] = test system: HEL; assay: Induction of apoptosis in HEL cells assessed as viable cells at 0.2 uM incubated for 24 hrs by Annexin V/PI staining based flow cytometry (reference value: 94.94 %); format: functional; conditions: Homo sapiens, read-out: Activity
[9] = test system: HEL; assay: Induction of apoptosis in HEL cells assessed as early apoptotic cells at 0.2 uM incubated for 24 hrs by Annexin V/PI staining based flow cytometry (reference value: 1.47 %); format: functional, Homo sapiens
[10] = test system: HEL; assay: Induction of apoptosis in HEL cells assessed as late apoptotic cells at 0.2 uM incubated for 24 hrs by Annexin V/PI staining based flow cytometry (reference value: 1.98 %); format: functional, Homo sapiens
[11] = test system: HEL; assay: Induction of apoptosis in HEL cells assessed as necrotic cells at 0.2 uM incubated for 24 hrs by Annexin V/PI staining based flow cytometry (reference value: 1.61 %); format: functional, Homo sapiens
[12] = test system: HEL; assay: Induction of apoptosis in HEL cells assessed as viable cells at 0.4 uM incubated for 24 hrs by Annexin V/PI staining based flow cytometry (reference value: 94.94 %); format: functional; conditions: Homo sapiens, read-out: Activity
[13] = test system: HEL; assay: Induction of apoptosis in HEL cells assessed as early apoptotic cells at 0.4 uM incubated for 24 hrs by Annexin V/PI staining based flow cytometry (reference value: 1.47 %); format: functional, Homo sapiens
[14] = test system: HEL; assay: Induction of apoptosis in HEL cells assessed as late apoptotic cells at 0.4 uM incubated for 24 hrs by Annexin V/PI staining based flow cytometry (reference value: 1.98 %); format: functional, Homo sapiens
[15] = test system: HEL; assay: Induction of apoptosis in HEL cells assessed as necrotic cells at 0.4 uM incubated for 24 hrs by Annexin V/PI staining based flow cytometry (reference value: 1.61 %); format: functional, Homo sapiens
[16] = test system: HEL; assay: Induction of apoptosis in HEL cells assessed as viable cells at 0.1 uM incubated for 48 hrs by Annexin V/PI staining based flow cytometry (reference value: 95.63 %); format: functional; conditions: Homo sapiens, read-out: Activity
[17] = test system: HEL; assay: Induction of apoptosis in HEL cells assessed as early apoptotic cells at 0.1 uM incubated for 48 hrs by Annexin V/PI staining based flow cytometry (reference value: 1.62 %); format: functional, Homo sapiens
[18] = test system: HEL; assay: Induction of apoptosis in HEL cells assessed as late apoptotic cells at 0.1 uM incubated for 48 hrs by Annexin V/PI staining based flow cytometry (reference value: 1.83 %); format: functional, Homo sapiens
[19] = test system: HEL; assay: Induction of apoptosis in HEL cells assessed as necrotic cells at 0.1 uM incubated for 48 hrs by Annexin V/PI staining based flow cytometry (reference value: 0.92 %); format: functional, Homo sapiens
[20] = test system: HEL; assay: Induction of apoptosis in HEL cells assessed as viable cells at 0.2 uM incubated for 48 hrs by Annexin V/PI staining based flow cytometry (reference value: 95.63 %); format: functional; conditions: Homo sapiens, read-out: Activity
[21] = test system: HEL; assay: Induction of apoptosis in HEL cells assessed as early apoptotic cells at 0.2 uM incubated for 48 hrs by Annexin V/PI staining based flow cytometry (reference value: 1.62 %); format: functional, Homo sapiens
[22] = test system: HEL; assay: Induction of apoptosis in HEL cells assessed as late apoptotic cells at 0.2 uM incubated for 48 hrs by Annexin V/PI staining based flow cytometry (reference value: 1.83 %); format: functional, Homo sapiens
[23] = test system: HEL; assay: Induction of apoptosis in HEL cells assessed as necrotic cells at 0.2 uM incubated for 48 hrs by Annexin V/PI staining based flow cytometry (reference value: 0.92 %); format: functional, Homo sapiens
[24] = test system: HEL; assay: Induction of apoptosis in HEL cells assessed as viable cells at 0.4 uM incubated for 48 hrs by Annexin V/PI staining based flow cytometry (reference value: 95.63 %); format: functional; conditions: Homo sapiens, read-out: Activity
[25] = test system: HEL; assay: Induction of apoptosis in HEL cells assessed as early apoptotic cells at 0.4 uM incubated for 48 hrs by Annexin V/PI staining based flow cytometry (reference value: 1.62 %); format: functional, Homo sapiens
[26] = test system: HEL; assay: Induction of apoptosis in HEL cells assessed as late apoptotic cells at 0.4 uM incubated for 48 hrs by Annexin V/PI staining based flow cytometry (reference value: 1.83 %); format: functional, Homo sapiens
[27] = test system: HEL; assay: Induction of apoptosis in HEL cells assessed as necrotic cells at 0.4 uM incubated for 48 hrs by Annexin V/PI staining based flow cytometry (reference value: 0.92 %); format: functional, Homo sapiens
[28] = test system: HEL; assay: Induction of cell cycle arrest in HEL cells assessed as cell accumulation at G1 phase at 0.1 uM incubated for 24 hrs by […] (reference value: 39.11 %); format: functional, Homo sapiens
[29] = test system: HEL; assay: Induction of cell cycle arrest in HEL cells assessed as cell accumulation at S phase at 0.1 uM incubated for 24 hrs by […] (reference value: 16.18 %); format: functional, Homo sapiens
[30] = test system: HEL; assay: Induction of cell cycle arrest in HEL cells assessed as cell accumulation at G2/M phase at 0.1 uM incubated for 24 hrs by […] (reference value: 16.18 %); format: functional, Homo sapiens
[31] = test system: HEL; assay: Induction of cell cycle arrest in HEL cells assessed as cell accumulation at G1 phase at 0.2 uM incubated for 24 hrs by Western blot analysis (reference value: 39.11 %); format: functional, Homo sapiens
[32] = test system: HEL; assay: Induction of cell cycle arrest in HEL cells assessed as cell accumulation at S phase at 0.2 uM incubated for 24 hrs by […] (reference value: 16.18 %); format: functional, Homo sapiens
[33] = test system: HEL; assay: Induction of cell cycle arrest in HEL cells assessed as cell accumulation at G2/M phase at 0.2 uM incubated for 24 hrs by […] (reference value: 16.18 %); format: functional, Homo sapiens
[34] = test system: HEL; assay: Induction of cell cycle arrest in HEL cells assessed as cell accumulation at G1 phase at 0.4 uM incubated for 24 hrs by […] (reference value: 39.11 %); format: functional, Homo sapiens
[35] = test system: HEL; assay: Induction of cell cycle arrest in HEL cells assessed as cell accumulation at S phase at 0.4 uM incubated for 24 hrs by […] (reference value: 16.18 %); format: functional, Homo sapiens
[36] = test system: HEL; assay: Induction of cell cycle arrest in HEL cells assessed as cell accumulation at G2/M phase at 0.4 uM incubated for 24 hrs by […] (reference value: 16.18 %); format: functional, Homo sapiens
[37] = test system: HEL; assay: Induction of cell cycle arrest in HEL cells assessed as cell accumulation at G1 phase at 0.1 uM incubated for 48 hrs by […] (reference value: 54.17 %); format: functional, Homo sapiens
[38] = test system: HEL; assay: Induction of cell cycle arrest in HEL cells assessed as cell accumulation at S phase at 0.1 uM incubated for 48 hrs by […] (reference value: 33.66 %); format: functional, Homo sapiens
[39] = test system: HEL; assay: Induction of cell cycle arrest in HEL cells assessed as cell accumulation at G2/M phase at 0.1 uM incubated for 48 hrs by […] (reference value: 20.36 %); format: functional, Homo sapiens
[40] = test system: HEL; assay: Induction of cell cycle arrest in HEL cells assessed as cell accumulation at G1 phase at 0.2 uM incubated for 48 hrs by […] (reference value: 54.17 %); format: functional, Homo sapiens
[41] = test system: HEL; assay: Induction of cell cycle arrest in HEL cells assessed as cell accumulation at S phase at 0.2 uM incubated for 48 hrs by […] (reference value: 33.66 %); format: functional, Homo sapiens
[42] = test system: HEL; assay: Induction of cell cycle arrest in HEL cells assessed as cell accumulation at G2/M phase at 0.2 uM incubated for 48 hrs by […] (reference value: 20.36 %); format: functional, Homo sapiens
[43] = test system: HEL; assay: Induction of cell cycle arrest in HEL cells assessed as cell accumulation at G1 phase at 0.4 uM incubated for 48 hrs by […] (reference value: 54.17 %); format: functional, Homo sapiens
[44] = test system: HEL; assay: Induction of cell cycle arrest in HEL cells assessed as cell accumulation at S phase at 0.4 uM incubated for 48 hrs by […] (reference value: 33.66 %); format: functional, Homo sapiens
[45] = test system: HEL; assay: Induction of cell cycle arrest in HEL cells assessed as cell accumulation at G2/M phase at 0.4 uM incubated for 48 hrs by […] (reference value: 20.36 %); format: functional, Homo sapiens
[46] = test system: MDA-MB-231
Description: Cytotoxicity against human MDA-MB-231 cells assessed as cell growth inhibition incubated for 72 hrs by MTT assay

In the case of COc1cc(OC)c2c(c1)O[C@@]1(c3ccc(OCCCCCN4CCN(C)CC4)cc3)[C@H](c3ccccc3)C[C@@H](O)[C@@]21O.O=C(O)/C=C/C(=O)O (racemic; form 2), the IC50 [1] is reported as 190 nM, the IC50 [2] is reported as over 1000 nM and the solubility at 24 h [3] is reported as 12.5 mg/mL. It also gave a viability at 0.1 µM [4] of 94.7%, an Activity [5] of 1.34% and an Activity [6] of 2.02%. The Activity [7] was 1.96%, the viability at 0.2 µM [8] was 95.2% and the Activity [9] was 1.5%. For the same compound, the Activity [10] was 1.66%, the Activity [11] was 1.68% and the viability at 0.4 µM [12] was 94.6%. It also gave an Activity [13] of 2.17%, an Activity [14] of 2.1% and an Activity [15] of 1.12%. For the same compound, the viability at 0.1 µM [16] was 92%, the Activity [17] was 3.45% and the Activity [18] was 3.54%. The Activity [19] was 1.02%, the viability at 0.2 µM [20] was 82.9% and the Activity [21] was 6.37%. It also gave an Activity [22] of 7.65%, an Activity [23] of 3.11% and a viability at 0.4 µM [24] of 68.9%. For the same compound, the Activity [25] was 18.85%, the Activity [26] was 10.08% and the Activity [27] was 2.21%. It also gave an Activity [28] of 39.54%, an Activity [29] of 39.19% and an Activity [30] of 21.09%. The Activity [31] was 50.73%, the Activity [32] was 27.85% and the Activity [33] was 20.55%. For the same compound, the Activity [34] was 54.17%, the Activity [35] was 27.85% and the Activity [36] was 18.31%. For the same compound, the Activity [37] was 43.16%, the Activity [38] was 30.25% and the Activity [39] was 25.52%. The Activity [40] was 62.59%, the Activity [41] was 19.87% and the Activity [42] was 15.61%. The Activity [43] was 66.15%, the Activity [44] was 19.87% and the Activity [45] was 8.35%. It also gave an IC50 [46] of over 1000 nM.
